Experimental data: patent publication US20020128326A1, “TOPICAL IMMUNOMODULATING COMPOSITIONS FOR TREATMENT OF AIDS, HEPATITIS B&C, OTHER INFECTIOUS DISEASES, AND CANCER” (priority 1998, published 2002)

Key:
[1] = cited from earlier work
[2] = rodents; cited from earlier work
HIV-1 = assay: HIV viral load in patients sensitized and rechallenged topically; assay type: in vivo, human
Text: As examples of the HIV viral load reducing effects of the subject compositions, two patients were sensitized with 0.400% diphenylcyclopropenone in a vehicle consisting of equal parts of polyoxysorbitan 20 monooleate and isopropyl myristate and subsequently rechallenged with 0.100% diphenylcyclopropenone in the same vehicle two weeks, four weeks and eight weeks later.

Compound | toxic effects with repeated human use [1] | LD/50 [2] [mg/kg] | HIV-1 RNA Copies/1.0 ml Plasma (HIV-1; Patient #1, Baseline) | HIV-1 RNA Copies/1.0 ml Plasma (HIV-1; Patient #1, Eight Weeks, sensitized 0.400%, rechallenged 0.100% topically) [Copies/1.0 ml Plasma] | HIV-1 RNA Copies/1.0 ml Plasma (HIV-1; Patient #1, Four Weeks, sensitized 0.400%, rechallenged 0.100% topically) [Copies/1.0 ml Plasma] | HIV-1 RNA Copies/1.0 ml Plasma (HIV-1; Patient #1, Two Weeks, sensitized 0.400%, rechallenged 0.100% topically) [Copies/1.0 ml Plasma] | HIV-1 RNA Copies/1.0 ml Plasma (HIV-1; Patient #2, Baseline) [Copies/1.0 ml Plasma] | HIV-1 RNA Copies/1.0 ml Plasma (HIV-1; Patient #2, Eight Weeks, sensitized 0.400%, rechallenged 0.100% topically) [Copies/1.0 ml Plasma]
CC(C)=O [Acetone] | epidermal erythema, dryness, headache, bronchial irritation, CNS effects including fatigue and excitement | 10.7 |  |  |  |  |  | 
O=c1c(-c2ccccc2)c1-c1ccccc1 [diphenylcyclopropenone] |  |  | 400 Copies Copies/1.0 ml Plasma | 79 | 60 | 118 | 440 | 351
